This test addresses T1, sigma-2 receptor (Mus musculus, UniProt Q8VD00).
T1 construct: gene Tmem97; Panc02 tumor membrane homogenates
T1 sequence (Q8VD00 1-176): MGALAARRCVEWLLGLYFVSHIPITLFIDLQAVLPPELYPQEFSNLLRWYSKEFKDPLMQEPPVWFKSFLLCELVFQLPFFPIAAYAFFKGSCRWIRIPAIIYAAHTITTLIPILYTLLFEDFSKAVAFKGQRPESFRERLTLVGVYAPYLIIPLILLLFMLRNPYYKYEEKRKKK
As to the kind of experiment: radioligand competition with […]-ISO-2 in membrane homogenates. Format: binding.

The compound `COc1ccc(C)cc1NC(=O)OC1CC2CCCC(C1)N2CCCCCCCCCCN` (centres unmarked) [SW43] showed an IC50 of 18 ± 2.1 nM.
In turn, `COc1ccc(C)cc1NC(=O)OC1CC2CCCC(C1)N2CCCCCCN` (centres unmarked) [SV119] displayed an IC50 of 7.8 ± 1.7 nM.

The IC50 is the point on the concentration scale where inhibition reaches its midpoint. A higher IC50 goes with lower potency.

Source of the values: publication PMC3106998, “The novel sigma-2 receptor ligand SW43 stabilizes pancreas cancer progression in combination with gemcitabine” (2010).
